In patent US20250171454A1, “HETEROBIFUNCTIONAL […] AMINOPURINE AND RELATED COMPOUNDS AND THEIR USE IN NSD2 DEGRADATION AND TREATING MEDICAL CONDITIONS” (K36 Therapeutics, Inc., priority 2023, published 2025):

Biological target: recombinant human NSD2 (amino acids 2-end) with N-terminal His tag (Homo sapiens (Human), UniProt O96028)
Assay: NSD2 inhibitory activity, modified RBC HotSpot HMT Assay
Type: biochemical
Settings: NSD2 2 nM, chicken oligonucleosomes 0.05 mg/mL, 3H-SAM 1 μM, 1 hour at 30° C.
Experimental: Exemplary compounds were tested for NSD2 inhibitory activity using a modified RBC HotSpot HMT Assay.
A reaction mixture was prepared by adding oligonucleosomes from chicken (0.05 mg/mL) to freshly prepared reaction buffer containing 50 mM Tris-HCl (pH 8.5), 50 mM NaCl, 5 mM MgCl2, 0.01% Brij35, 1 mM DTT, and 1% DMSO followed by the addition of recombinant human NSD2 (amino acids 2-end) with N-terminal His tag (2 nM; GenBank Accession No. NM_001042424; MW=155.5 kDa; expressed in Sf9 insect cells) and gentle mixing. The test compounds were diluted in DMSO (to 10 mM), and added to the reaction mixture in nanoliter amounts by using Acoustic Technology (Echo 550, LabCyte Inc. Sunnyvale, CA) and incubated for 20 minutes at room temperature. […] The reaction mixture was delivered to filter paper, and the methylated substrate was quantified by scintillation counting.
Data analysis was performed using Excel and GraphPad Prism software for IC50 curve fits. For additional information on the histone methyltransferase assay, see, for example, Horiuchi K Y, et al., “Assay Development for Histone Methyltransferases,” Assay Drug Dev Technol.

recombinant human NSD2 (amino acids 2-end) with N-terminal His tag, sequence (O96028 2-1365 limits assumed): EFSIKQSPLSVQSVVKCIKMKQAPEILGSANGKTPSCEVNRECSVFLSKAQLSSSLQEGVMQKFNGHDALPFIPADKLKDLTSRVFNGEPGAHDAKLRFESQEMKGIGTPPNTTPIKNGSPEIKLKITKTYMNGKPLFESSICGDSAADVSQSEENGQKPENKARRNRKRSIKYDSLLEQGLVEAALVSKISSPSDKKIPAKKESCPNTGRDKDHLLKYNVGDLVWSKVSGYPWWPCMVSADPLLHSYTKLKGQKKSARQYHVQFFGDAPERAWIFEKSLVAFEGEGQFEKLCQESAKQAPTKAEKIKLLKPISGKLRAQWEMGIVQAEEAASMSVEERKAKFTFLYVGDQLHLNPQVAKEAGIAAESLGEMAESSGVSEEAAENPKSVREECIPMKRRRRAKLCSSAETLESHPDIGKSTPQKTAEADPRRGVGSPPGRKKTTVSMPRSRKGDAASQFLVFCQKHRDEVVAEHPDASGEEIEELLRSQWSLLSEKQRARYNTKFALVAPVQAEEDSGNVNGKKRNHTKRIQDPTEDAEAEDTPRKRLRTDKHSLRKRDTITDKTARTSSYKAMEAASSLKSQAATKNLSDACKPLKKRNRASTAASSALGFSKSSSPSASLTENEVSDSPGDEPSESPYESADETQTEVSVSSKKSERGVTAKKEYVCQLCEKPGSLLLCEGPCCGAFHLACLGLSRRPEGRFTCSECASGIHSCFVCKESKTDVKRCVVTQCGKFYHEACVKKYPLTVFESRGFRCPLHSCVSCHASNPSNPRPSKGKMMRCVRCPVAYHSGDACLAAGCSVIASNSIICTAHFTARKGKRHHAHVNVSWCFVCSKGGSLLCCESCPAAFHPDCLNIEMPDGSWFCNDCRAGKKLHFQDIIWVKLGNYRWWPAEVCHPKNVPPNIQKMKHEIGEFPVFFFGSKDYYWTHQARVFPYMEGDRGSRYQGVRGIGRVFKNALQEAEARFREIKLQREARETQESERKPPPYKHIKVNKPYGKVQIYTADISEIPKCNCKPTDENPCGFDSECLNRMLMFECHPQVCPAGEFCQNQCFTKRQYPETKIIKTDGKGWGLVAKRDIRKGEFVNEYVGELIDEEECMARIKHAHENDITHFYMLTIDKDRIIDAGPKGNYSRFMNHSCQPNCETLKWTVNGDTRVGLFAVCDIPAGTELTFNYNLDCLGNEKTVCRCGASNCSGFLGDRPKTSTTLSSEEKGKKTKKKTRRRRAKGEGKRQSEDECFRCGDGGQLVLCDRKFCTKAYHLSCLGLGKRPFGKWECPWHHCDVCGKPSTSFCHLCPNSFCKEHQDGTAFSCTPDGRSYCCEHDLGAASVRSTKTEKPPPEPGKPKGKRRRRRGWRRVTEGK

Compound | IC50 [nM]
Nc1ncnc2c1ncn2Cc1cc(-c2cc(F)c(OCCCCNc3cccc4c3C(=O)N(C3CCC(=O)NC3=O)C4=O)cc2F)ncc1N1CCC[C@](N)([C@H](O)C(F)F)C1 (stereo partly drawn) [I-61, 4-((4-(4-(5-((R)-3-amino-3-((S)-2,2-difluoro-1-hydroxyethyl)piperidin-1-yl)-4-((6-amino-9H-purin-9-yl)methyl)pyridin-2-yl)-2,5-difluorophenoxy)butyl)amino)-2-(2,6-dioxopiperidin-3-yl)isoindoline-1,3-dione] | < 50
Nc1ncnc2c1ncn2Cc1cc(-c2cc(F)c(OCCCCCNc3cccc4c3C(=O)N(C3CCC(=O)NC3=O)C4=O)cc2F)ncc1N1CCC[C@](N)([C@H](O)C(F)F)C1 (stereo partly drawn) [I-62, 4-((5-(4-(5-((R)-3-amino-3-((S)-2,2-difluoro-1-hydroxyethyl)piperidin-1-yl)-4-((6-amino-9H-purin-9-yl)methyl)pyridin-2-yl)-2,5-difluorophenoxy)pentyl)amino)-2-(2,6-dioxopiperidin-3-yl)isoindoline-1,3-dione] | 50 to 100
Nc1ncnc2c1ncn2Cc1cc(-c2cc(F)c(OCCCCCCNc3cccc4c3C(=O)N(C3CCC(=O)NC3=O)C4=O)cc2F)ncc1N1CCC[C@](N)([C@H](O)C(F)F)C1 (stereo partly drawn) [I-63, 4-((6-(4-(5-((R)-3-amino-3-((S)-2,2-difluoro-1-hydroxyethyl)piperidin-1-yl)-4-((6-amino-9H-purin-9-yl)methyl)pyridin-2-yl)-2,5-difluorophenoxy)hexyl)amino)-2-(2,6-dioxopiperidin-3-yl)isoindoline-1,3-dione] | 100 to 1000
Nc1ncnc2c1ncn2Cc1cc(-c2cc(F)c(OCC(=O)Nc3cccc4c3C(=O)N(C3CCC(=O)NC3=O)C4=O)cc2F)ncc1N1CCC[C@](N)([C@H](O)C(F)F)C1 (stereo partly shown) [I-64] | < 50
Nc1ncnc2c1ncn2Cc1cc(-c2cc(F)c(OCC(=O)NCCNc3cccc4c3C(=O)N(C3CCC(=O)NC3=O)C4=O)cc2F)ncc1N1CCC[C@](N)([C@H](O)C(F)F)C1 (stereo partly drawn) [I-65, 2-(4-(5-((R)-3-amino-3-((S)-2,2-difluoro-1-hydroxyethyl)piperidin-1-yl)-4-((6-amino-9H-purin-9-yl)methyl)pyridin-2-yl)-2,5-difluorophenoxy)-N-(2-((2-(2,6-dioxopiperidin-3-yl)-1,3-dioxoisoindolin-4-yl)amino)ethyl)acetamide] | < 50
Nc1ncnc2c1ncn2Cc1cc(-c2cc(F)c(OCC(=O)NCCCNc3cccc4c3C(=O)N(C3CCC(=O)NC3=O)C4=O)cc2F)ncc1N1CCC[C@](N)([C@H](O)C(F)F)C1 (stereo partly drawn) [I-66, 2-(4-(5-((R)-3-amino-3-((S)-2,2-difluoro-1-hydroxyethyl)piperidin-1-yl)-4-((6-amino-9H-purin-9-yl)methyl)pyridin-2-yl)-2,5-difluorophenoxy)-N-(3-((2-(2,6-dioxopiperidin-3-yl)-1,3-dioxoisoindolin-4-yl)amino)propyl)acetamide] | < 50
Nc1ncnc2c1ncn2Cc1cc(-c2cc(F)c(OCCCCNc3cccc4c3C(=O)N(C3CCC(=O)NC3=O)C4=O)c(F)c2)ncc1N1CCC[C@](N)(c2ccccn2)C1 (stereo partly drawn) [I-67, 4-((4-(4-(5-((R)-3-amino-3-(pyridin-2-yl)piperidin-1-yl)-4-((6-amino-9H-purin-9-yl)methyl)pyridin-2-yl)-2,6-difluorophenoxy)butyl)amino)-2-(2,6-dioxopiperidin-3-yl)isoindoline-1,3-dione] | < 50
Nc1ncnc2c1ncn2Cc1cc(-c2cc(F)c(OCCCCNc3cccc4c3C(=O)N(C3CCC(=O)NC3=O)C4=O)c(F)c2)ncc1N1CCC[C@@](N)(c2ccccn2)C1 (stereo partly drawn) [I-68, 4-((4-(4-(5-((S)-3-amino-3-(pyridin-2-yl)piperidin-1-yl)-4-((6-amino-9H-purin-9-yl)methyl)pyridin-2-yl)-2,6-difluorophenoxy)butyl)amino)-2-(2,6-dioxopiperidin-3-yl)isoindoline-1,3-dione] | > 1000
Nc1ncnc2c1ncn2Cc1cc(-c2cc(F)c(OCCCCCNc3cccc4c3C(=O)N(C3CCC(=O)NC3=O)C4=O)c(F)c2)ncc1N1CCC[C@](N)(c2ccccn2)C1 (stereo partly drawn) [I-69, 4-((5-(4-(5-((R)-3-amino-3-(pyridin-2-yl)piperidin-1-yl)-4-((6-amino-9H-purin-9-yl)methyl)pyridin-2-yl)-2,6-difluorophenoxy)pentyl)amino)-2-(2,6-dioxopiperidin-3-yl)isoindoline-1,3-dione] | < 50
Nc1ncnc2c1ncn2Cc1cc(-c2cc(F)c(OCCCCCNc3cccc4c3C(=O)N(C3CCC(=O)NC3=O)C4=O)c(F)c2)ncc1N1CCC[C@@](N)(c2ccccn2)C1 (stereo partly shown) [I-70] | > 1000
Nc1ncnc2c1ncn2Cc1cc(-c2cc(F)c(OCCCCCCNc3cccc4c3C(=O)N(C3CCC(=O)NC3=O)C4=O)c(F)c2)ncc1N1CCC[C@](N)(c2ccccn2)C1 (stereo partly drawn) [I-71, 4-((6-(4-(5-((R)-3-amino-3-(pyridin-2-yl)piperidin-1-yl)-4-((6-amino-9H-purin-9-yl)methyl)pyridin-2-yl)-2,6-difluorophenoxy)hexyl)amino)-2-(2,6-dioxopiperidin-3-yl)isoindoline-1,3-dione] | < 50
COc1cc(F)c(-c2cc(Cn3cnc4c(NCCCCCNc5cccc6c5C(=O)N(C5CCC(=O)NC5=O)C6=O)ncnc43)c(N3CCC[C@](N)([C@H](O)C(F)F)C3)cn2)cc1F (stereo partly drawn) [I-76, 4-((5-((9-((5-((R)-3-amino-3-((S)-2,2-difluoro-1-hydroxyethyl)piperidin-1-yl)-2-(2,5-difluoro-4-methoxyphenyl)pyridin-4-yl)methyl)-9H-purin-6-yl)amino)pentyl)amino)-2-(2,6-dioxopiperidin-3-yl)isoindoline-1,3-dione] | > 1000

Further lines, results first:

IC50 [nM] | Compound
> 1000 | COc1cc(F)c(-c2cc(Cn3cnc4c(NCCCCCCNc5cccc6c5C(=O)N(C5CCC(=O)NC5=O)C6=O)ncnc43)c(N3CCC[C@](N)([C@H](O)C(F)F)C3)cn2)cc1F (stereo partly drawn) [I-77, 4-((6-((9-((5-((R)-3-amino-3-((S)-2,2-difluoro-1-hydroxyethyl)piperidin-1-yl)-2-(2,5-difluoro-4-methoxyphenyl)pyridin-4-yl)methyl)-9H-purin-6-yl)amino)hexyl)amino)-2-(2,6-dioxopiperidin-3-yl)isoindoline-1,3-dione]
100 to 1000 | COc1c(F)cc(-c2cc(Cn3cnc4c(NCCCCCNc5cccc6c5C(=O)N(C5CCC(=O)NC5=O)C6=O)ncnc43)c(N3CCC[C@](N)(c4ccccn4)C3)cn2)cc1F (stereo partly drawn) [I-79, 4-((5-((9-((5-((R)-3-amino-3-(pyridin-2-yl)piperidin-1-yl)-2-(3,5-difluoro-4-methoxyphenyl)pyridin-4-yl)methyl)-9H-purin-6-yl)amino)pentyl)amino)-2-(2,6-dioxopiperidin-3-yl)isoindoline-1,3-dione]
> 1000 | COc1c(F)cc(-c2cc(Cn3cnc4c(NCCCCCCNc5cccc6c5C(=O)N(C5CCC(=O)NC5=O)C6=O)ncnc43)c(N3CCC[C@](N)(c4ccccn4)C3)cn2)cc1F (stereo partly drawn) [I-80, 4-((6-((9-((5-((R)-3-amino-3-(pyridin-2-yl)piperidin-1-yl)-2-(3,5-difluoro-4-methoxyphenyl)pyridin-4-yl)methyl)-9H-purin-6-yl)amino)hexyl)amino)-2-(2,6-dioxopiperidin-3-yl)isoindoline-1,3-dione]
50 to 100 | COc1c(F)cc(-c2cc(Cn3cnc4c(NCCCCCCNc5cccc6c5C(=O)N(C5CCC(=O)NC5=O)C6=O)ncnc43)c(N3CCC[C@@](N)(c4ccccn4)C3)cn2)cc1F (stereo partly drawn) [I-81, 4-((6-((9-((5-((S)-3-amino-3-(pyridin-2-yl)piperidin-1-yl)-2-(3,5-difluoro-4-methoxyphenyl)pyridin-4-yl)methyl)-9H-purin-6-yl)amino)hexyl)amino)-2-(2,6-dioxopiperidin-3-yl)isoindoline-1,3-dione]
> 1000 | COc1c(F)cc(-c2cc(Cn3cnc4c(NCCCCCCCNc5cccc6c5C(=O)N(C5CCC(=O)NC5=O)C6=O)ncnc43)c(N3CCC[C@](N)(c4ccccn4)C3)cn2)cc1F (stereo partly drawn) [I-82, 4-((7-((9-((5-((R)-3-amino-3-(pyridin-2-yl)piperidin-1-yl)-2-(3,5-difluoro-4-methoxyphenyl)pyridin-4-yl)methyl)-9H-purin-6-yl)amino)heptyl)amino)-2-(2,6-dioxopiperidin-3-yl)isoindoline-1,3-dione]
100 to 1000 | Cc1ncsc1-c1ccc(CNC(=O)[C@@H]2C[C@@H](O)CN2C(=O)[C@@H](NC(=O)CCOCCOCCOCCOc2cc(F)c(-c3cc(Cn4cnc5c(N)ncnc54)c(N4CCC[C@](N)([C@H](O)C(F)F)C4)cn3)cc2F)C(C)(C)C)cc1 [I-84]
100 to 1000 | Cc1ncsc1-c1ccc(CNC(=O)[C@@H]2C[C@@H](O)CN2C(=O)[C@@H](NC(=O)CCCCCCCCCCCOc2cc(F)c(-c3cc(Cn4cnc5c(N)ncnc54)c(N4CCC[C@](N)([C@H](O)C(F)F)C4)cn3)cc2F)C(C)(C)C)cc1 [I-85]
